Test systems include MOLT-4; LOX IMVI; SR; SK-MEL-28; OVCAR-5; UACC-62; TK-10; SW-620; COLO 205; HOP-62; UO-31; NCI-H460; NCI-H522; M14; ACHN; HL-60; HOP-92.
Holding throughout (test): growth of human tumour cells (NCI), 48 h

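48-hour exposure; five concentrations; linearly interpolated endpoints. Abbreviation: GI50, concentration required for 50% inhibition of growth.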 The source made the active and inactive calls. Rule as the data show it: active = GI50 up to about 1.1 µM and inactive = higher.

For `COc1cc(C(C)c2cc3c(cc2OCCNC(=O)COc2cc4c(cc2C(C)c2cc(OC)c(OC)c(OC)c2)OCO4)OCO3)cc(OC)c1OC` (centres undefined), the GI50 is 7.13 µM (inactive) in the test with MOLT-4; 42.3 µM (inactive) in the test with LOX IMVI; > 100 µM (inactive) in the test on SR; > 100 µM (inactive) with SK-MEL-28; 6.38 µM (inactive) with OVCAR-5; 6.78 µM (inactive) in the test on UACC-62. Moreover, the GI50 in the test on TK-10 is > 100 µM (inactive); in the test on SW-620, > 100 µM (inactive); with COLO 205, 48.2 µM (inactive); in the test on HOP-62 it was 58.7 µM (inactive); with UO-31, > 100 µM (inactive); in the test with NCI-H460, 22.2 µM (inactive). Also, the GI50 in the test on NCI-H522 is 29.5 µM (inactive); in the test on M14 it was 85.3 µM (inactive); in the test with ACHN, 63.2 µM (inactive); in the test on HL-60 it was > 100 µM (inactive).

Turning to `CCC(=O)OC[n+]1ccc2c(C)c3[nH]c4ccc(OC)cc4c3c(C)c2c1`, the GI50 in the test with MOLT-4 is 0.0142 µM (active); in the test with LOX IMVI, 0.0927 µM (active); with SR it was 0.0134 µM (active); in the test with SK-MEL-28 it was 0.759 µM (active); with OVCAR-5, 0.299 µM (active); with HOP-92, 0.0556 µM (active). In addition, the GI50 in the test with TK-10 was 0.94 µM (active); in the test with SW-620, 0.0288 µM (active); in the test with COLO 205, 0.0906 µM (active); with NCI-H460, 0.0199 µM (active); with M14, 0.333 µM (active); in the test with ACHN, 0.0485 µM (active). Further, in the test with HL-60, the GI50 was 1.66 µM (inactive).

On to `Cc1ccc(Nc2nc(C)c(C(/C=C/c3ccc4c(c3)OCO4)=N/Nc3ccc([N+](=O)[O-])cc3[N+](=O)[O-])s2)c([N+](=O)[O-])c1`, for which the GI50 in the test with MOLT-4 is 21.7 µM (inactive); in the test on LOX IMVI it was 16.3 µM (inactive); in the test with SR, 24.4 µM (inactive); in the test on SK-MEL-28, > 100 µM (inactive); with OVCAR-5, 43.9 µM (inactive); in the test on UACC-62, 3.59 µM (inactive). Besides, the GI50 in the test on TK-10 is 37.8 µM (inactive); in the test with SW-620, 45 µM (inactive); in the test with COLO 205 it was 56.5 µM (inactive); in the test on HOP-62, 32.8 µM (inactive); in the test with UO-31, 21.8 µM (inactive); with NCI-H460 it was 41 µM (inactive). The GI50 in the test on NCI-H522 was 14.2 µM (inactive); in the test with M14 it was 61.7 µM (inactive); in the test with ACHN, 21.5 µM (inactive); with HL-60, 21.7 µM (inactive).

On to `COC(=O)C1=C(C(=O)OC)C2=S(SC3=C2CCCC3)S1` (centres undefined), for which the GI50 in the test with MOLT-4 is 12 µM (inactive); in the test with LOX IMVI, 2.79 µM (inactive); with SK-MEL-28 it was 29.7 µM (inactive); in the test with OVCAR-5 it was 27.4 µM (inactive); in the test with HOP-92, 6.05 µM (inactive); in the test with UACC-62, 26 µM (inactive). For the same molecule, the GI50 is 30.1 µM (inactive) in the test with TK-10; 0.467 µM (active) with SW-620; 23.4 µM (inactive) in the test on COLO 205; > 100 µM (inactive) with HOP-62; 68.1 µM (inactive) in the test on UO-31; 28.1 µM (inactive) in the test on NCI-H460. Moreover, the GI50 in the test on NCI-H522 is 2.2 µM (inactive); in the test with M14 it was 24.8 µM (inactive); with ACHN it was 28.1 µM (inactive); in the test with HL-60, 9.48 µM (inactive).

As for `CNS(=O)(=O)NNS(=O)(=O)c1ccc(F)cc1`, the GI50 in the test on MOLT-4, in the test with LOX IMVI, in the test on SR, with UACC-62, with SW-620 and with COLO 205 was > 100 µM (inactive) in each case. Besides, the GI50 was > 100 µM (inactive) in the test with HOP-62; > 100 µM (inactive) in the test with UO-31; 59.3 µM (inactive) with NCI-H460; > 100 µM (inactive) in the test on NCI-H522; > 100 µM (inactive) in the test on M14; > 100 µM (inactive) in the test with ACHN. Also, the GI50 with HL-60 is > 100 µM (inactive).

(Values after ChEMBL document CHEMBL1201862, “PubChem BioAssay data set” (2004).)
